Measured values published in publication PMC6220203, “Cellular signaling and gene expression profiles evoked by a bivalent macrocyclic peptide that serves as an artificial MET receptor agonist” (Scientific Reports, 2018).

System: MET receptor / AKT in EHMES-1 cells
Test: Western blot of MET and AKT phosphorylation with or without PHA665752
Assay type: cell-based, human
Details: PHA665752 100 nM, stimulated by 1 nM HGF or 120 nM aMD5-PEG11, 10 min
Description: EHMES-1 cells were seeded at 9 × 10^5 cells per well in 6-well plates and cultured overnight. To treat the cells with the MET receptor tyrosine kinase inhibitor, EHMES-1 cells were seeded at 3 × 10^5 cells per well in 24-well plates and cultured with or without 100 nM PHA665752 for 12 h. After serum starvation for 4 h, cells were stimulated with HGF or dimeric macrocycle peptide. After washing with ice-cold PBS, cells were lysed in 200 μl 1 × SDS-PAGE Laemmli sample buffer and treated with ultrasonification (Vibra-cell). Cell lysates were analyzed by SDS-PAGE with a 7.5% polyacrylamide gel and electroblotted onto a PVDF membrane. The membrane was treated with primary antibodies (1:1000), followed by HRP-conjugated secondary antibodies (Dako) (1:2000). Chemiluminescence was visualized and quantitated using ImmunoStar LD (Wako). Original blots are provided by supplementary info.

In the case of `Cc1[nH]c(/C=C2\C(=O)Nc3ccc(S(=O)(=O)Cc4c(Cl)cccc4Cl)cc32)c(C)c1C(=O)N1CCC[C@@H]1CN1CCCC1` [PHA665752], the “inhibition of MET receptor and AKT activation” value is reported as “almost completely blocked the activation of the MET receptor and AKT to basal levels”.
